Results: the NIST ThermoML archive (doi:10.1016/j.fluid.2013.11.026)

Assays:
[1] = xn = mol fraction of the nth substance listed; details: 101 kPa, Liquid, Vibrating tube method
[2] = 101.33 kPa, Liquid, Vibrating tube method
[3] = refractive index (Na D-line) (dimensionless); details: 101.33 kPa, Liquid, Standard Abbe refractometry
[4] = excess molar enthalpy (molar enthalpy of mixing); xn = mol fraction of the nth substance listed; details: 101 kPa, Liquid, Calvet calorimetry

CCCCC [pentane] + CCCCOC=O
[1], x2 = 0
Details	mass density [kg/m3]
291.15 K	627.86
298.15 K	620.89

CCCOC=O [propyl methanoate]
Details	mass density, [2] [kg/m3]	refractive index, [3]
291.15 K	907.97	1.3778
298.15 K	899.86	1.3752

CCCCC [pentane] + CCCOC=O
[1], x2 = 0
Details	mass density [kg/m3]
291.15 K	627.86
298.15 K	620.89

CCCCOC=O [butyl methanoate]
Details	mass density, [2] [kg/m3]	refractive index, [3]
291.15 K	895.86	1.3904
298.15 K	888.47	1.3872

CCCOC=O [propyl methanoate] + CCCCC
Details	excess molar enthalpy, [4] [kcal/mol]	mass density, [1] [kg/m3]
291.15 K, x1 = 0.057	–	639.86
291.15 K, x1 = 0.0666	0.0844	–
291.15 K, x1 = 0.117	–	653.61
291.15 K, x1 = 0.1411	0.141	–
291.15 K, x1 = 0.166	–	665.38
291.15 K, x1 = 0.2072	0.1824	–
291.15 K, x1 = 0.26	–	688.38
291.15 K, x1 = 0.2696	0.2106	–
291.15 K, x1 = 0.308	–	700.63
291.15 K, x1 = 0.3154	0.2273	–
291.15 K, x1 = 0.3689	0.2395	–
291.15 K, x1 = 0.4172	0.2433	–
291.15 K, x1 = 0.448	–	737.83
291.15 K, x1 = 0.46	0.2431	–
291.15 K, x1 = 0.4953	0.2402	–
291.15 K, x1 = 0.5199	0.238	–
291.15 K, x1 = 0.537	–	763.24
291.15 K, x1 = 0.5543	0.2321	–
291.15 K, x1 = 0.5955	0.2218	–
291.15 K, x1 = 0.631	0.2122	–
291.15 K, x1 = 0.651	–	796.41
291.15 K, x1 = 0.678	0.1974	–
291.15 K, x1 = 0.703	–	812.04
291.15 K, x1 = 0.7184	0.1807	–
291.15 K, x1 = 0.7665	0.1597	–
291.15 K, x1 = 0.819	0.1322	848.4
291.15 K, x1 = 0.847	–	857.3
291.15 K, x1 = 0.879	0.0949	–
291.15 K, x1 = 0.938	–	886.86
291.15 K, x1 = 0.9403	0.0528	–
291.15 K, x1 = 1	–	907.97
298.15 K, x1 = 0.042	0.0468	–
298.15 K, x1 = 0.0505	–	631.54
298.15 K, x1 = 0.0794	–	638.09
298.15 K, x1 = 0.1081	0.114	–
298.15 K, x1 = 0.1375	–	651.43
298.15 K, x1 = 0.1456	0.158	–
298.15 K, x1 = 0.2012	–	666.5
298.15 K, x1 = 0.2109	0.2017	–
298.15 K, x1 = 0.2525	–	679.23
298.15 K, x1 = 0.2706	0.2294	–
298.15 K, x1 = 0.3178	–	695.79
298.15 K, x1 = 0.3317	0.2495	–
298.15 K, x1 = 0.3733	–	710.12
298.15 K, x1 = 0.3889	0.2596	–
298.15 K, x1 = 0.4303	–	725.46
298.15 K, x1 = 0.4431	0.2631	–
298.15 K, x1 = 0.4798	–	739.19
298.15 K, x1 = 0.4882	–	741.75
298.15 K, x1 = 0.4905	0.2627	–
298.15 K, x1 = 0.5353	0.2584	–
298.15 K, x1 = 0.5467	–	758.38
298.15 K, x1 = 0.5637	0.2548	–
298.15 K, x1 = 0.6019	–	774.28
298.15 K, x1 = 0.6149	0.245	–
298.15 K, x1 = 0.67	0.2326	–
298.15 K, x1 = 0.6778	–	796.75
298.15 K, x1 = 0.7271	0.2125	–
298.15 K, x1 = 0.7597	–	822.01
298.15 K, x1 = 0.7888	0.1809	–
298.15 K, x1 = 0.8079	–	837.19
298.15 K, x1 = 0.8503	–	850.78
298.15 K, x1 = 0.8511	0.141	–
298.15 K, x1 = 0.9096	0.0927	–
298.15 K, x1 = 0.9251	–	874.84
298.15 K, x1 = 0.9655	0.0442	–
298.15 K, x1 = 1	–	899.86

CCCCC [pentane] + CCOC=O
[1], x2 = 0
Details	mass density [kg/m3]
291.15 K	627.86
298.15 K	620.89

COC=O [methyl methanoate]
Details	mass density, [2] [kg/m3]	refractive index, [3]
291.15 K	977.21	1.3452
298.15 K	966.54	1.3415

COC=O [methyl methanoate] + CCCCC
291.15 K
Details	excess molar enthalpy [kcal/mol]	mass density [kg/m3]
[1], x1 = 0.091	–	640.27
[1], x1 = 0.102	–	641.95
[1], x1 = 0.147	–	649.45
[1], x1 = 0.206	–	660.56
[1], x1 = 0.27	–	674.05
[1], x1 = 0.309	–	683.08
[1], x1 = 0.371	–	698.6
[1], x1 = 0.393	–	704.52
[1], x1 = 0.416	–	710.63
[1], x1 = 0.451	–	721.01
[1], x1 = 0.488	–	732.21
[1], x1 = 0.506	–	737.92
[1], x1 = 0.559	–	755.6
[1], x1 = 0.618	–	776.61
[1], x1 = 0.695	–	807.5
[1], x1 = 0.759	–	835.94
[1], x1 = 0.786	–	849.13
[1], x1 = 0.827	–	870.13
[1], x1 = 0.84	–	876.82
[1], x1 = 0.941	–	936.47
[1], x1 = 1	–	977.21
[4], x1 = 0.1107	0.1511	–
[4], x1 = 0.2113	0.2758	–
[4], x1 = 0.3055	0.3714	–
[4], x1 = 0.3765	0.418	–
[4], x1 = 0.438	0.4412	–
[4], x1 = 0.4783	0.4484	–
[4], x1 = 0.5268	0.4539	–
[4], x1 = 0.5716	0.4503	–
[4], x1 = 0.6028	0.4398	–
[4], x1 = 0.6356	0.4264	–
[4], x1 = 0.6702	0.4089	–
[4], x1 = 0.7191	0.3817	–
[4], x1 = 0.7683	0.3425	–
[4], x1 = 0.8256	0.2882	–
[4], x1 = 0.8773	0.2266	–
[4], x1 = 0.9215	0.158	–
[4], x1 = 0.9587	0.0827	–

CCCCC [pentane]
Details	mass density, [2] [kg/m3]	refractive index, [3]
291.15 K	627.86	1.3589
298.15 K	620.89	1.3545

CCCCC [pentane] + COC=O
Details	mass density [kg/m3]
[1], 291.15 K, x2 = 0	627.86
